Laboratory results published in publication PMC11106742, “Computational Design of Cyclic Peptide Inhibitors of a Bacterial Membrane Lipoprotein Peptidase” (ACS Chemical Biology, 2024).
Converted amounts (≈) assume the structure as drawn. Where two headings read alike, the source gives them in different places. Numbered stars: 1 amine (or outer) side, 2 acyl side, 3 side chain; on linkers, the order of the positions; unused ones are H or OH. Bridge positions count the residues as written; N and C are the ends. Square brackets hold non-standard residues; d marks the D form. Peptide text beside a SMILES is read from it. * marks the point of attachment. X1 = CCCCCCCCN([C@@H](C)C(=O)[*:2])[*:1]; X4 = CCCCCCCCN([C@H](C)C(=O)[*:2])[*:1]; X2 = CCCCC[C@@H](C)N(CC(=O)[*:2])[*:1]; Gly(N-dodecyl) = CCCCCCCCCCCCNCC(=O)O; X6 = CCCCC[C@H](C)N(CC(=O)[*:2])[*:1]; X7 = CCOCCOCCOCCN(CC(=O)[*:2])[*:1]; aIle = CC[C@@H](C)[C@H](N)C(=O)O; N(octyl)Gly = CCCCCCCCNCC(=O)O; aThr = C[C@H](O)[C@H](N)C(=O)O; NMeL = CN[C@@H](CC(C)C)C(=O)O; Heptanoyl = CCCCCCC(=O)*; Pentanoyl = CCCCC(=O)*; Propionyl = CCC(=O)*; Butyryl = CCCC(=O)*; βAla = NCCC(=O)O

Assays:
P. aeruginosa 950 = experiment: microbe, parasite or virus in culture; assay type: cell-based, Pseudomonas aeruginosa
Protocol: (§1) MIC values were determined in cation-adjusted Mueller-Hinton broth using the broth microdilution method according to CLSI guidelines. Plates were incubated for 16 to 24 h at 37 °C.
(§2) Six biological replicates were performed across three different 2-fold dilution series, starting at concentration of 100 µg/ml, 80 µg/ml or 64 µg/ml. The lowest concentration of antimicrobial inhibiting growth was taken as the MIC. This was established by visual inspection of the medium after the incubation period with a lack of turbidity of the growth medium indicating no growth.[3] […]

A. baumannii AB17978 = experiment: microbe, parasite or virus in culture; assay type: cell-based, Acinetobacter baumannii
Protocol: as §1, §2

A. baumannii AB5075 = experiment: microbe, parasite or virus in culture; assay type: cell-based, Acinetobacter baumannii
Protocol: as §1, §2

E. coli ATCC25922 = experiment: microbe, parasite or virus in culture; assay type: cell-based, Escherichia coli
Protocol: as §1, §2

PaLspA [1] = target: T1, PaLspA (Pseudomonas aeruginosa, UniProt Q9HVM5); experiment: biochemical
T1 construct: made in house
T1 sequence (Q9HVM5 1-169): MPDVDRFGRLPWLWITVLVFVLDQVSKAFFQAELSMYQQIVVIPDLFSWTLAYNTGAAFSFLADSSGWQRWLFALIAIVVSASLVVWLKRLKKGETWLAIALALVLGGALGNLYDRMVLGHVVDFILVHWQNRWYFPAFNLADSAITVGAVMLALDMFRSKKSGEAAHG
Protocol: These analogues were tested for activity against PaLspA using an in vitro fluorescence resonance energy transfer (FRET) activity assay.[21] LspA inhibition was detected by a change in fluorescence upon cleavage of a FRET peptide substrate containing an N-terminal quencher moiety and a C-terminal fluorophore.
(A) Structures of G2a and G2d. (B) Results of the FRET dose–response assays. PaLspA concentration was 40 nM, FRET substrate concentration was 50 μM, and the concentration of inhibitors globomycin, G2a, and G2d ranged from 0–3,000 nM. (C) SDS-PAGE gels and quantitation of the PaLspA gel-shift dose–response assays. ppICP concentration was 12 μM, DOPG concentration was 600 μM, and Lgt concentration was 1.2 μM. The Lgt-catalyzed reaction was allowed to proceed for 60 min at 37 °C, after which inhibitors (0–1000 nM) were added. The PaLspA reaction was initiated by the addition of 100 nM enzyme. The LspA reaction was allowed to proceed for 30 min at 37 °C before being quenched with SDS-PAGE loading buffer (62.5 mM Tris/HCl pH 6.8, 2.5% (w/v) SDS, 0.002% (w/v) bromophenol blue, 0.5 M β-mercaptoethanol, 10% (v/v) glycerol). Quantitation of the gel-shift assays was performed using Image Lab, and data were plotted using GraphPad Prism.
Materials: All reagents were obtained from commercial sources and used without additional purification. All aqueous solutions were prepared using ultrapure laboratory grade water (deionized, filtered, and sterilized) obtained from an in-house ELGA water purification system. […]
Expression and purification of PaLspA, Lgt, EcLspA and ppICP: PaLspA, Lgt and pre-proICP (ppICP) were expressed and purified using previously published protocols (Vogely et al, 2016).[1] EcLspA was expressed and purified as described for PaLspA, with the following modification. The lysis buffer was 50 mM Hepes pH 7.5, 150 mM NaCl, 1 mM TCEP, 10 %(v/v) glycerol. Isolated membranes, containing EcLspA, were solubilized with 1 %(v/v) FC12 for 2 h at […]

E. coli = assay type: cell-based
Text: Initially, a library of six lipid amide analogues was synthesized via cyclization between the side-chain epsilon -NH2 of an N-terminal L-lysine residue and the C-terminus of an L-serine residue.
Each analogue was acylated with a simple linear lipid, ranging from C3 to C8 in length (Figure S1). To further probe the potential of the amide isostere, five additional analogues were synthesized in which the D- or L-stereoisomer of cationic amino acids diaminobutyric acid (Dab), ornithine (Orn), or Lys were used as the N-terminal cyclization partner. Each analogue was acylated with an octanoyl tail and the subsequent effects of ring size and/or stereochemistry, as well as lipid length, determined by assessing antimicrobial activity against E. coli. Peptides were also screened against S. aureus.
Unfortunately, each analogue was unable to […]

PaLspA [2] = target: T1, PaLspA; experiment: Enzyme inhibition assay of rationally designed analogues with PaLspA; assay type: biochemical; details: peptide incubated with PaLspA
Protocol: Additionally, C3 – C5 (peptides S5 – S7) and C7-Gbm(NLys) (peptide S9) amide analogues were submitted for enzyme inhibition assays to determine if these cyclic amide isosteres could still inhibit the target enzyme, LspA. Each peptide was incubated with PaLspA and the observed reduction in enzyme activity reported. […]
found for peptides S5 and S9 (C3 and C7-Gbm(NLys). […]
Four linear globomycin analogues were synthesized to determine the necessity of the cyclic core.
The pentapeptide core of NMeLeu-Ile-Ser-Thr-Gly-OH was synthesized as both the natural allo-version and the cheaper non-allo version in which native residues allo-L-isoleucine and allo-L-threonine were replaced by their cheaper non-allo derivatives. Each linear pentapeptide was synthesized in both its acylated, octyl-derivative and non-acylated form and submitted for analysis of its PaLspA inhibitory activity. No PaLspA inhibition was observed, confirming the importance of globomycin’s cyclic core for antimicrobial activity.

Row | SMILES | IC50 (PaLspA [1]) [nM] | MIC (E. coli) [µg/mL] | reduction in PaLspA enzyme activity (in words) (PaLspA [2]) | further results
1 | CCCCCCCCCCCCN1CC(=O)N(C)[C@@H](CC(C)C)C(=O)N[C@@H]([C@H](C)CC)C(=O)N[C@@H](CO)C(=O)N[C@@H]([C@H](C)O)C(=O)NCCC1=O [G2d] (cyclo([NMeL][aIle]S[aThr][βAla][Gly(N-dodecyl)])) | 157 ± 25 |  |  | MIC (P. aeruginosa 950; 950): 32 µg/mL (≈ 44.1 µM); MIC (A. baumannii AB17978; AB17978): 16 µg/mL (≈ 22.1 µM); MIC (A. baumannii AB5075; AB5075): 16 µg/mL (≈ 22.1 µM); MIC (E. coli ATCC25922; ATCC25922): 32 µg/mL (≈ 44.1 µM)
2 | CCOCCOCCOCCN1CC(=O)N(C)[C@@H](CC(C)C)C(=O)N[C@@H]([C@H](C)CC)C(=O)N[C@@H](CO)C(=O)N[C@@H]([C@H](C)O)C(=O)NCCC1=O [G2e] (cyclo([NMeL][aIle]S[aThr][βAla][X7])) | 6160 ± 840 |  |  | 
3 | CCCCCC[C@H]1OC(=O)CNC(=O)[C@H]([C@H](C)O)NC(=O)[C@H](CO)NC(=O)[C@H]([C@H](C)CC)NC(=O)[C@H](CC(C)C)N(C)C(=O)[C@@H]1C [globomycin, reference compound] | 40 |  |  | MIC (P. aeruginosa 950; Pseudomonas aeruginosa, P. aeruginosa 950, cation-adjusted Mueller-Hinton broth, 16 to 24 h, 37 °C, read-out: MIC): 16 µg/mL (≈ 24.4 µM); MIC (A. baumannii AB17978; Acinetobacter baumannii, A. baumannii AB17978, cation-adjusted Mueller-Hinton broth, 16 to 24 h, 37 °C, read-out: MIC): 16 µg/mL (≈ 24.4 µM); MIC (A. baumannii AB5075; Acinetobacter baumannii, A. baumannii AB5075, cation-adjusted Mueller-Hinton broth, 16 to 24 h, 37 °C, read-out: MIC): 32 µg/mL (≈ 48.8 µM); MIC (E. coli ATCC25922; Escherichia coli, E. coli ATCC25922, cation-adjusted Mueller-Hinton broth, 16 to 24 h, 37 °C, read-out: MIC): 10 µg/mL (≈ 15.2 µM)
4 | CCCCC[C@H](C)N1CC(=O)N(C)[C@@H](CC(C)C)C(=O)N[C@@H]([C@H](C)CC)C(=O)N[C@@H](CO)C(=O)N[C@@H]([C@H](C)O)C(=O)NCCC1=O [G1a] (cyclo([NMeL][aIle]S[aThr][βAla][X6])) | 2940 ± 850 |  |  | 
5 | CCCCC[C@@H](C)N1CC(=O)N(C)[C@@H](CC(C)C)C(=O)N[C@@H]([C@H](C)CC)C(=O)N[C@@H](CO)C(=O)N[C@@H]([C@H](C)O)C(=O)NCCC1=O [G1b] (cyclo([NMeL][aIle]S[aThr][βAla][X2])) | 3680 ± 420 |  |  | MIC (P. aeruginosa 950; 950): 32 µg/mL (≈ 48.9 µM); MIC (A. baumannii AB17978; AB17978): 16 µg/mL (≈ 24.4 µM); MIC (A. baumannii AB5075; AB5075): 25 µg/mL (≈ 38.2 µM); MIC (E. coli ATCC25922; ATCC25922): 32 µg/mL (≈ 48.9 µM)
6 | CCC(=O)N[C@H]1CCCCNC(=O)[C@H](CO)NC(=O)[C@H](CO)NC(=O)[C@H]([C@H](C)CC)NC(=O)[C@H](CC(C)C)N(C)C1=O [S5, C3-Globomycin(N-Lys)] (Propionyl-K[NMeL][aIle]SS; lactam 1-C) |  | > 200 | moderate decrease in enzyme activity | 
7 | CCCCCCC(=O)N[C@H]1CCCCNC(=O)[C@H](CO)NC(=O)[C@H](CO)NC(=O)[C@H]([C@H](C)CC)NC(=O)[C@H](CC(C)C)N(C)C1=O [S9, C7-Globomycin(N-Lys)] (Heptanoyl-K[NMeL][aIle]SS; lactam 1-C) |  | 100 (≈ 153 µM) | moderate decrease in enzyme activity | 
8 | CCCCCCCCN1CC(=O)N(C)[C@@H](CC(C)C)C(=O)N[C@@H]([C@H](C)CC)C(=O)N[C@@H](CO)C(=O)N[C@@H]([C@H](C)O)C(=O)NCCC1=O [G2c] (cyclo([NMeL][aIle]S[aThr][βAla][N(octyl)Gly])) | 920 ± 70 |  |  | 
9 | CCCC(=O)N[C@H]1CCCCNC(=O)[C@H](CO)NC(=O)[C@H](CO)NC(=O)[C@H]([C@H](C)CC)NC(=O)[C@H](CC(C)C)N(C)C1=O [S6, C4-Globomycin(N-Lys)] (Butyryl-K[NMeL][aIle]SS; lactam 1-C) |  | > 200 | no reduction in activity | 
10 | CCCCCCCCN1C(=O)CCNC(=O)[C@H]([C@H](C)O)NC(=O)[C@H](CO)NC(=O)[C@H]([C@H](C)CC)NC(=O)[C@H](CC(C)C)N(C)C(=O)[C@H]1C [G2b] (cyclo([NMeL][aIle]S[aThr][βAla][X4])) | 430 ± 50 |  |  | 
11 | CCCCC(=O)N[C@H]1CCCCNC(=O)[C@H](CO)NC(=O)[C@H](CO)NC(=O)[C@H]([C@H](C)CC)NC(=O)[C@H](CC(C)C)N(C)C1=O [S7, C5-Globomycin(N-Lys)] (Pentanoyl-K[NMeL][aIle]SS; lactam 1-C) |  | > 200 | no reduction in activity | 
12 | CCCCCCCCN1C(=O)CCNC(=O)[C@H]([C@H](C)O)NC(=O)[C@H](CO)NC(=O)[C@H]([C@H](C)CC)NC(=O)[C@H](CC(C)C)N(C)C(=O)[C@@H]1C [G2a] (cyclo([NMeL][aIle]S[aThr][βAla][X1])) | 304 ± 62 |  |  | MIC (P. aeruginosa 950; 950): 32 µg/mL (≈ 46.9 µM); MIC (A. baumannii AB17978; AB17978): 12.5 µg/mL (≈ 18.3 µM); MIC (A. baumannii AB5075; AB5075): 16 µg/mL (≈ 23.4 µM); MIC (E. coli ATCC25922; ATCC25922): 32 µg/mL (≈ 46.9 µM)
